Experimental data taken from publication PMC11821258 (Molecules, 2025).
Like-named read-outs stand apart in the source and are kept apart here.

Tests used:
[1] = system: human biphenotypic B myelomonocytic leukemia MV4-11; experiment: Antiproliferative activity, MTT assay, 72 h; assay type: cell-based; conditions: for IC50: Homo sapiens, MV4-11, 72 h; for SI: IC50 MCF-10A / IC50 MV4-11
Protocol: (§1) The tested compounds were dissolved in DMSO (dimethyl sulfoxide) to a concentration of 10 mg/mL and then were diluted in the culture medium to reach the final concentrations. The cells were plated in 384-well plates at a density of 1 × 10^3 or 2 × 10^3 (MCF-10A) cells per well (Greiner Bio One, Kremsmünster, Austria) and in 96-well plates (MV4-11 cell; Sarstedt, Nümbrecht, Germany) at a density of 5 × 10^3 cells per well. After 24 h of incubation, the tested compounds were added at concentrations in the range of 100–0.03 µg/mL and, after the next 72 h of exposure to tested agents, the cytotoxic effect of all agents was examined using the MTT (MV4-11) or SRB assay, described previously. The values of IC50 (inhibitory concentration 50%) were calculated separately for each experiment (repeated 3–5 times) using the Prolab-3 system which is based on Cheburator 0.4 software. Doxorubicin was applied as a reference drug. The IC50 values in µg/mL were calculated to µM.
This assay was used against MV4-11 leukemia cells and was performed after 72 h of exposure of the tested agents to the cells. For each well, 20 µL of the MTT [3-(4,5-dimethylthiazol-2-yl)-2,5-diphenyl tetrazolium bromide] solution (5 mg/mL, Merck, Darmstadt, Germany) was added. After the incubation time (4 h at 37 °C), 80 µL of the lysing buffer was added to each well (mixture of 225 mL of DMF (dimethylformamide) Avantor, Poland; 67.5 g of SDS, Merck, Darmstadt, Germany; and 275 mL of distilled water). After the next 24 h, the absorbance of the samples was measured at a 570 nm wavelength on a Synergy H4 photometer (BioTek Instruments, Winooski, VT, USA). The absorbance of wells without the cells was the background.

[2] = system: human breast cancer MCF-7; experiment: Antiproliferative activity, SRB assay, 72 h; assay type: cell-based; conditions: for IC50: Homo sapiens; for SI: IC50 MCF-10A / IC50 MCF-7
Protocol: as §1
(§2) The cytotoxicity assay was performed after the cultured cells were exposed to the tested agents for 72 h using the authomatic Washer dyspenser EL406, BioTek. At the first step, the washer dispenser collected 40 µL of cultured medium from each wells, and then the cells were fixed by gently layering 20 µL per well of cold 25% trichloroacetic acid to each well. The incubation time was 40 min and then the plates were washed with tap water. The cells were stained with 20 µL per well of 0.1% sulforhodamine B (SRB, Merck, Darmstadt, Germany) for 30 min. Unbound sulforhodamine B was removed by washing it with 1% acetic acid. The protein-bound dye was extracted in 30 min using 70 µL per well of 10 mM unbuffered Tris base (Merck, Darmstadt, Germany). The absorbance (at 540 nm) was measured on a Synergy H4 photometer (BioTek Instruments, Winooski, VT, USA). The absorbance of the wells without the cells was the background.

[3] = system: human colon cancer HCT116 cells; experiment: Antiproliferative activity, SRB assay, 72 h; assay type: cell-based; conditions: for IC50: Homo sapiens; for SI: IC50 MCF-10A / IC50 HCT116
Protocol: as §1, §2

[4] = system: human lung carcinoma A549; experiment: Antiproliferative activity, SRB assay, 72 h; assay type: cell-based; conditions: for IC50: Homo sapiens, A549, 72 h; for SI: IC50 MCF-10A / IC50 A549
Protocol: as §1, §2

[5] = system: human melanoma Hs294T cells; experiment: Antiproliferative activity, SRB assay, 72 h; assay type: cell-based; conditions: for IC50: Homo sapiens, Hs 294T, 72 h; for SI: IC50 MCF-10A / IC50 Hs249T (so in the source)
Protocol: as §1, §2

[6] = system: human pancreas cancer MiaPaca-2 cells; experiment: Antiproliferative activity, SRB assay, 72 h; assay type: cell-based; conditions: for IC50: Homo sapiens; for SI: IC50 MCF-10A / IC50 MiaPaca-1 (so in the source)
Protocol: as §1, §2

[7] = system: human prostate adenocarcinoma PC-3; experiment: Antiproliferative activity, SRB assay, 72 h; assay type: cell-based; conditions: for IC50: Homo sapiens; for SI: IC50 MCF-10A / IC50 PC-3
Protocol: as §1, §2

[8] = system: human normal epithelial cells from the mammary gland (MCF-10A); experiment: Cytotoxicity on non-tumorigenic cells, SRB assay, 72 h; assay type: cell-based; conditions: Homo sapiens
Protocol: as §1, §2

MV4-11 cells [9] = experiment: Cell cycle analysis by flow cytometry (propidium iodide); assay type: cell-based, human; conditions: for number of death cells / number of cells in the G2/M and S phases: MV4-11, 72 h; for number of cells in the G2/M and S phases / number of cells in the G2/M phase: about 1.5 × IC50, statistically significant
Protocol: After incubation, the cells were collected and counted with a hemocytometer, and the 5×10^5 cells were washed twice in cold PBS (phosphate-buffered saline) and fixed for 24 h in 70% ethanol at −20 °C. Then, the cells were washed twice in PBS and incubated with 0.5 mL of RNAse (8 μg/mL, Thermo Fisher, Waltham, MA, USA) at 37 °C for 1 h. The cells were stained for 30 min with propidium iodide (final concentration: 50 μg/mL, Merck, Darmstadt, Germany) at 4 °C and the cellular DNA content was analyzed by conducting flow cytometry using a BD LSRFortessa cytometer (BD Bioscience, San Jose, CA, USA). Compounds at each concentration were tested at least three times independently. The obtained results were analyzed using Flowing software 2.5.1 (Cell Imaging Core, Turku Centre for Biotechnology, University of Turku and Åbo Akademi University, Finland).

MV4-11 cells [10] = experiment: Apoptosis determination via Annexin V and PI staining; assay type: cell-based, human
Protocol: Camptothecin at a concentration of 0.05 uM was used as a positive control. After incubation, the cells were collected and counted with a hemocytometer, and 1×10^5 cells were washed twice with PBS. APC-Annexin V (Becton Dickinson, Pharmingen, Franklin Lakes, NJ, USA) was dissolved to the concentration of […] in a binding buffer (10 mM HEPES/NaOH, pH 7.4; 150 mM NaCl; 5 mM KCl; 1 mM MgCl2; and 1.8 mM CaCl2) (HIIET, Wrocław, Poland), and the cells were suspended in 200 µL of this solution. After 15 min of the incubation in the dark at room temperature, 20 µL of propidium iodide (PI) solution (0.02 mg/mL) was added. Data acquisition was performed by conducting flow cytometry using a BD LSRFortessa cytometer (BD Bioscience, San Jose, CA, USA). The compounds were tested at least three times independently. Results were analyzed using Flowing software 2.5.1 (Turku, Finland). […] Double-negative cells were live cells, PI+/Annexin V+ were late apoptotic cells, PI-/Annexin V+ were early apoptotic cells, and PI+/Annexin V- were necrotic cells.

[11] = system: tested cell lines (MV4-11, A549, MCF-7, PC-3, HCT116, MiaPaca-2, Hs294T); experiment: Antiproliferative activity, range over the tested cell lines; assay type: cell-based; conditions: Homo sapiens; range across cell lines, 72 h
Protocol: as §1, with “The values of IC50 (inhibitory concentration 50%) were calculated separately for each experiment (repeated 3–5 times) using the Prolab-3 system which is based on Cheburator 0.4 software. Doxorubicin was applied as a reference drug.” left out
This assay was used against MV4-11 leukemia cells and was performed after 72 h of exposure of the tested agents to the cells. […] After the next 24 h, the absorbance of the samples was measured at a 570 nm wavelength on a Synergy H4 photometer (BioTek Instruments, Winooski, VT, USA). The absorbance of wells without the cells was the background.
The cytotoxicity assay was performed after the cultured cells were exposed to the tested agents for 72 h using the authomatic Washer dyspenser EL406, BioTek. […] The absorbance (at 540 nm) was measured on a Synergy H4 photometer (BioTek Instruments, Winooski, VT, USA). […]

[12] = MCF7, MCF-7, 72 h, SRB, read-out: IC50
[13] = HCT-116, HCT116, 72 h, SRB, read-out: IC50
[14] = Hs249T (so in the source), SRB, read-out: IC50
[15] = MIA PaCa-2, MiaPaca-1 (so in the source), 72 h, SRB, read-out: IC50
[16] = PC-3, 72 h, SRB, read-out: IC50
[17] = MCF-10A normal cells, SRB, read-out: IC50
[18] = MV4-11, 72 h, higher concentrations

Compound | IC50 ([1]; MTT, read-out: IC50) | IC50 [2, 12] | SI [2] | IC50 [3, 13] | SI [3] | IC50 ([4]; SRB, read-out: IC50) | SI [4] | IC50 [5, 14] | SI [5] | IC50 [6, 15] | SI [6] | IC50 [7, 16] | SI [7] | IC50 [8, 17] | number of death cells (MV4-11 cells [9]; about 1.5 × IC50) | number of cells in the G2/M and S phases (MV4-11 cells [9]) | induction of apoptosis (MV4-11 cells [10]; [18]) | SI [1] | further results
C#CC(=O)OC[C@]12CC[C@@H](C(=C)C)C1C1CCC3[C@@]4(C)CC[C@H](OC(=O)CCC(=O)O)C(C)(C)C4CC[C@@]3(C)[C@]1(C)CC2 (stereo partly shown) [Compound 6a] | 2.57 ± 1.01 µM | 16 ± 1.01 µM | 3.09 | 20.7 ± 9.08 µM | 2.39 | 12.9 ± 0.67 µM | 3.82 | 3.53 ± 0.67 µM | 14 | 18.5 ± 9.75 µM | 2.67 | 0.41 ± 0.08 µM | 121 | 49.4 ± 17.8 µM | increased | decreased | induction of apoptosis was observed |  | 
C#CCCC(=O)OC[C@]12CC[C@@H](C(=C)C)C1C1CCC3[C@@]4(C)CC[C@H](OC(=O)CC(C)(C)CC(=O)O)C(C)(C)C4CC[C@@]3(C)[C@]1(C)CC2 (stereo partly shown) [Compound 4b] | 3.19 ± 1.29 µM | 11.7 ± 2.41 µM | 2.78 | 7.82 ± 2.86 µM | 4.17 | 4.06 ± 1.05 µM | 8.04 | 10.7 ± 1.5 µM | 3.06 | 24.5 ± 2.56 µM | 1.33 | 11.6 ± 4.51 µM | 2.82 | 32.6 ± 2.41 µM | increased | decreased | induction of apoptosis was observed | 10.20 | 
C=C(C)[C@@H]1CC[C@]2(CO)CC[C@]3(C)[C@H](CC[C@@H]4[C@@]5(C)CC[C@H](O)C(C)(C)[C@@H]5CC[C@]43C)[C@@H]12 [B, betulin, reference compound] | 32.8 ± 12.9 µM | 43.6 ± 15.8 µM |  | 37.7 ± 7.45 µM |  | 14 ± 1.13 µM | 7.03 | 58.5 ± 15.6 µM | 1.68 | 144 ± 22.1 µM | 0.68 | 51.5 ± 9.94 µM |  | 98.48 ± 0.9 µM |  |  |  |  | IC50 [11]: 14 to 144 µM; number of cells in the S and G0/G1 phases (MV4-11 cells [9]; MV4-11, 24 h, about 1.5 × IC50): lowered; number of cells in the G2/M phase (MV4-11 cells [9]; MV4-11, 24 h): lowered
C=C(C)[C@@H]1CC[C@]2(CO)CC[C@]3(C)C(CCC4[C@@]5(C)CC[C@H](OC(=O)CCC(=O)O)C(C)(C)C5CC[C@]43C)C12 (stereo partly shown) [Compound 6] | 6.45 ± 2.03 µM | 19 ± 6.45 µM | 1.68 | 20.3 ± 5.53 µM | 1.57 | 8.66 ± 1.1 µM | 3.68 | 32.1 ± 1.66 µM | 0.99 | 38.1 ± 3.87 µM | 0.84 | 26.2 ± 5.71 µM | 1.22 | 31.9 ± 4.24 µM |  |  | induction of apoptosis was observed | 4.94 | 
C#CCCC(=O)OC[C@]12CC[C@@H](C(=C)C)C1C1CCC3[C@@]4(C)CC[C@H](OC(=O)CC(C)(C)C(=O)O)C(C)(C)C4CC[C@@]3(C)[C@]1(C)CC2 (stereo partly shown) [Compound 5b] | 4.76 ± 0.92 µM | 12.3 ± 2.92 µM | 2.75 | 9.06 ± 2.92 µM | 3.73 | 4.15 ± 0.92 µM | 8.15 | 16.1 ± 4.76 µM | 2.10 | 28.4 ± 3.23 µM | 1.19 | 21.1 ± 1.54 µM | 1.61 | 33.8 ± 3.38 µM | increased | decreased | induction of apoptosis was observed | 7.10 | number of cells in the G2/M phase (MV4-11 cells [9]; MV4-11, 24 h): lowered; number of necrotic cells (MV4-11 cells [10]; MV4-11, 72 h): increased the number of necrotic cells
C#CC(=O)OC[C@]12CC[C@@H](C(=C)C)C1C1CCC3[C@@]4(C)CC[C@H](OC(=O)CC(C)(C)CC(=O)O)C(C)(C)C4CC[C@@]3(C)[C@]1(C)CC2 (stereo partly shown) [Compound 4a] | 0.38 ± 0.14 µM | 16.5 ± 1.88 µM | 2.01 | 7.85 ± 2.35 µM | 4.22 | 7.54 ± 1.25 µM | 4.40 | 0.49 ± 0.23 µM | 67 | 7.54 ± 0.47 µM | 4.40 | 0.86 ± 0.25 µM |  | 33.1 ± 5.18 µM |  |  | induction of apoptosis was observed |  | induction of apoptosis (MV4-11 cells [10]; MV4-11, 24 h): induced apoptosis
C=C(C)[C@@H]1CC[C@]2(COC(C)=O)CC[C@]3(C)C(CCC4[C@@]5(C)CC[C@H](OC(=O)CC(C)(C)C(=O)O)C(C)(C)C5CC[C@]43C)C12 (stereo partly shown) [Compound 2, 28-acetyl-3-(3′,3′-dimethylsuccinyl)betulin] |  |  | 2.04 |  | 3.10 |  | 7.43 |  | 1.23 |  | 1.20 |  | 1.69 |  |  |  |  | 7.70 | IC50 [1]: 4.4 ± 1.63 µM; IC50 ([2]; MCF7, 72 h): 16.6 ± 7.67 µM; IC50 ([3]; HCT-116, 72 h): 10.9 ± 2.94 µM; IC50 [4]: 4.57 ± 1.79 µM; IC50 [5]: 27.6 ± 0.65 µM; IC50 ([6]; MIA PaCa-2, 72 h): 28.2 ± 4.4 µM; IC50 ([7]; 72 h): 20.1 ± 2.12 µM; IC50 ([8]; MCF-10A): 33.9 ± 4.24 µM
